Our source for the EC50, concentration and Kp uu values is patent publication US12435080B2, “sGC stimulators” (Tisento Therapeutics Inc., priority 2016, dated 2025).

The target of one data set is T1, sGC enzyme (Homo sapiens, UniProt Q02108+Q02153).
T1 construct: incorporated into these cells detect cGMP formed by the compounds stimulating the sGC enzyme; host or cells: HEK293 cells stably expressing GloSensor 40F cGMP biosensor
T1 sequence (Q02153 1-619): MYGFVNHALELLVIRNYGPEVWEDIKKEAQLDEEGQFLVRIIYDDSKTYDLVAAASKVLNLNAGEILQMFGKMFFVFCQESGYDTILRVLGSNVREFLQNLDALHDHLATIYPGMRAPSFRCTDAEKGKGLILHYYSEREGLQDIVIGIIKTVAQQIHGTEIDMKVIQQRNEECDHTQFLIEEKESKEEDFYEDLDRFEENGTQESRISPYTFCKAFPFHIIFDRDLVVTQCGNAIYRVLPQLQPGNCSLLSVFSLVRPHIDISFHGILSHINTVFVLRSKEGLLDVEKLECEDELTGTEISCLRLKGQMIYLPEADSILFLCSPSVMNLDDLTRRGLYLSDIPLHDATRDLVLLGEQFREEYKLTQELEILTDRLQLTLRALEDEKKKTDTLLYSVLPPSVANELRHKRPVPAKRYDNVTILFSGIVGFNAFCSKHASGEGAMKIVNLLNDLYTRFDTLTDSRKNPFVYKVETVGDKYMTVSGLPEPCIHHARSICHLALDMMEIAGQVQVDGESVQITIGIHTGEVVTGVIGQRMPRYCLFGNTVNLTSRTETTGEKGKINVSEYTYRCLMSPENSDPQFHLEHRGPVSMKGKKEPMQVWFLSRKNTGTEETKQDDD
T1 sequence (Q02108 1-690): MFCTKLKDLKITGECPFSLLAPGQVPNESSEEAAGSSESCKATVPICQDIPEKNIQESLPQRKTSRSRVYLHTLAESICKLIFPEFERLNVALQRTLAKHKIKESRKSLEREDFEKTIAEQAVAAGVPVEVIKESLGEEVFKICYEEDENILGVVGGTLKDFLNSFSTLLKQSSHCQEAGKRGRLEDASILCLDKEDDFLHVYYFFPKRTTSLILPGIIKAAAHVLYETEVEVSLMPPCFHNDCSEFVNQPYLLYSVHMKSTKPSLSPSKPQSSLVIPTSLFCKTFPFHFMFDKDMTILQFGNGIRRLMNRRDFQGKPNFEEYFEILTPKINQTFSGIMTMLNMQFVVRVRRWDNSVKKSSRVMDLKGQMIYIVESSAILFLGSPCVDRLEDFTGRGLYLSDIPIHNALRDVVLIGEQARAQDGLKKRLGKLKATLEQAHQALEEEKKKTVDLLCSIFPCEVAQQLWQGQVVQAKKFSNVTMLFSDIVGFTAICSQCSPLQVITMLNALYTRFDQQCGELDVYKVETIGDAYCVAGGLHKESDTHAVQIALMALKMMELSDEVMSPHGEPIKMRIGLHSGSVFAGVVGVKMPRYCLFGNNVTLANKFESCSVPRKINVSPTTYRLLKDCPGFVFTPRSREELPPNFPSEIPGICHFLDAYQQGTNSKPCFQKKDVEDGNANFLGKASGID
The data set can be described thus: cGMP GloSensor cell-based assay, 384-well format. The conditions noted are these: HEK293 cells expressing GloSensor 40F cGMP, 10 μM DETA-NONOate, normalized to 30 μM Compound Y. The procedure, abridged: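 HEK293 cells expressing GloSensor 40F cGMP luciferase biosensor, preloaded with 2 mM GloSensor substrate for 90 min at 25 °C. Endpoint luminescence read after 55 min compound incubation at room temperature.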

A short description of data set [1]: Rat cerebrospinal fluid (CSF) pharmacokinetic properties. The following applies: for concentration at 1 h: CSF, male Sprague-Dawley rats, PO 10 mg/kg in PEG400, 1 h post-dosing, read-out: CSF Conc. (nM @ 1 h); for Kp uu at 1 h: male, Sprague-Dawley, CSF and plasma (unbound), unbound CSF/unbound plasma ratio, rats, PO 10 mg/kg. It counts as in vivo. The procedure: PK in rats was determined following oral dosing. For the oral (PO) experiments, a group of 6 male Sprague-Dawley rats with an indwelling catheter placed in the cisterna magna were used. The PO group was dosed with 3 or 10 mg/kg of a compound formulated as a solution in PEG400. PO doses were administered by oral gavage and delivered to the stomach using a syringe and gavage tube. Following oral dosage administration, the gavage tube was flushed with approximately 0.5 mL of water to ensure complete delivery of the full dose.
Plasma and CSF samples were collected as follows: samples of CSF and blood were collected at 1 hour and 2 hours post-dosing. CSF samples (0.05 mL) were collected through the intracisternal catheter. Blood samples (0.25 mL) were collected through retro-orbital sampling. These samples were kept on ice until processed for plasma. Blood samples were centrifuged at 3200 rpm for 5 minutes at approximately 5° C. within 1 hour of collection. Plasma was directly transferred to a 96-well plate tube (0.125 mL). Plug caps were placed on the tubes and the tubes frozen at approximately −70° C. and stored until analysis.
Plasma was collected and analyzed for the presence of compound.
The compound in question and the internal standard were extracted from plasma and CSF by precipitation. Samples were analyzed using liquid chromatography (LC) with tandem mass spectrometric detection (MS/MS) using electrospray ionization. The standard curve range was from 1 to 1000 ng/mL. Results of the compounds described herein in this assay are illustrated in Tables 4A (for compounds in Table IA) and 4B (for compounds in Table IB) below.
Kp,uu is defined as the concentration ratio of unbound drug in CSF to unbound drug in plasma. Unbound drug in plasma (or free plasma concentration) is calculated by multiplying the total plasma concentration by the unbound fraction as determined by plasma protein binding. The CSF concentration is then divided by the free plasma concentration to determine the Kp,uu. (See e.g., Di et al., J. Med. Chem., 56, 2-12 (2013))

Where [2] appears, read: compounds in Table IA, read-out: Glo-sensor AbsEC50.
Where [3] appears, read: compounds in Table IB, read-out: Glo-sensor Abs EC50.

pEC50: −log10 of the molar value. Like-named read-outs stand apart in the source and are kept apart here. A value given as a limit tells only on which side of the number the result lay.

For `Fc1cncc(Cn2nc(-c3nc(C(F)(F)F)n[nH]3)c3cccnc32)c1` [Compound I-1, 1-((5-fluoropyridin-3-yl)methyl)-3-(3-(trifluoromethyl)-1H-1,2,4-triazol-5-yl)-1H-pyrazolo[3,4-b]pyridine], on sGC enzyme (setting [2]), the pEC50 is > 7.00. Also, in data set [1] (compounds in Table IA), the concentration at 1 h came to 164 nM and the Kp uu at 1 h is 0.24.

As to `Cc1n[nH]c(-c2nc(Cc3cncnc3)c3ccccn23)n1` [Compound I-5, 3-(3-methyl-1H-1,2,4-triazol-5-yl)-1-(pyrimidin-5-ylmethyl)imidazo[1,5-a]pyridine], on sGC enzyme (setting [3]), the pEC50 is 6.00 to 7.00. Also, in data set [1] (compounds in Table IB), the concentration at 1 h was found to be 30.4 nM and the Kp uu at 1 h worked out at 1.08.

For the compound `Fc1ccc2c(Cc3cncnc3)nc(-c3nc(C(F)(F)F)n[nH]3)n2c1` [Compound I-12, 6-fluoro-1-(pyrimidin-5-ylmethyl)-3-(3-(trifluoromethyl)-1H-1,2,4-triazol-5-yl)imidazo[1,5-a]pyridine], at sGC enzyme (setting [3]), the pEC50 was > 7.00. Also, in data set [1] (compounds in Table IB), the concentration at 1 h worked out at 45 nM and the Kp uu at 1 h was found to be 0.16.

Turning to `Fc1ccccc1Cn1nc(-c2nc(C(F)F)n[nH]2)c2cccnc21` [Compound I-20, 3-(3-(Difluoromethyl)-1H-1,2,4-triazol-5-yl)-1-(2-fluorobenzyl)-1H-pyrazolo[3,4-b]pyridine], the pEC50 at sGC enzyme (setting [2]) is > 7.00. In data set [1] (compounds in Table IA), the concentration at 1 h worked out at 207 nM and the Kp uu at 1 h was found to be 3.37.

Take `N#Cc1n[nH]c(-c2nn(Cc3cccc(F)c3F)c3ncccc23)n1` [Compound I-92, 5-(1-(2,3-Difluorobenzyl)-1H-pyrazolo[3,4-b]pyridin-3-yl)-1H-1,2,4-triazole-3-carbonitrile]: at sGC enzyme (setting [2]), the pEC50 is > 7.00. In addition, in data set [1] (compounds in Table IA), the concentration at 1 h worked out at 10.8 nM and the Kp uu at 1 h was 0.52.

`Fc1cc(F)cc(Cc2nn(-c3nc(C(F)F)n[nH]3)c3cccnc23)c1` [Compound I-123, 3-(3,5-Difluorobenzyl)-1-(3-(difluoromethyl)-1H-1,2,4-triazol-5-yl)-1H-pyrazolo[4,3-b]pyridine]: the pEC50 at sGC enzyme (setting [2]) was 6.00 to 7.00.

For `CC(=O)NCc1n[nH]c(-c2nn(Cc3ccccc3F)c3ncccc23)n1` [Compound I-124, N-((5-(1-(2-fluorobenzyl)-1H-pyrazolo[3,4-b]pyridin-3-yl)-1H-1,2,4-triazol-3-yl)methyl)acetamide], at sGC enzyme (setting [2]), the pEC50 was 6.00 to 7.00.

Turning to `O=C1CCC(=O)N1Cc1n[nH]c(-c2nn(Cc3ccccc3F)c3ncccc23)n1` [Compound I-125, 1-((5-(1-(2-fluorobenzyl)-1H-pyrazolo[3,4-b]pyridin-3-yl)-1H-1,2,4-triazol-3-yl)methyl)pyrrolidine-2,5-dione], the pEC50 at sGC enzyme (setting [2]) is 6.00 to 7.00.

For `O=C(CC(F)(F)F)Nc1n[nH]c(-c2nn(Cc3ccccc3F)c3ncccc23)n1` [Compound I-126], the pEC50 on sGC enzyme (setting [2]) is < 6.00.

For the compound `FC(F)(F)c1n[nH]c(-n2nc(Cc3ccccc3)c3ncccc32)n1` [Compound I-128, 3-Benzyl-1-(3-(trifluoromethyl)-1H-1,2,4-triazol-5-yl)-1H-pyrazolo[4,3-b]pyridine], the pEC50 at sGC enzyme (setting [2]) is 6.00 to 7.00.

With `FC(F)c1n[nH]c(-n2nc(Cc3ccccc3)c3ncccc32)n1` [Compound I-129], on sGC enzyme (setting [2]), the pEC50 was < 6.00.
